In patent US10889552B2, “Dihydroxybenzamide compound having HSP90 inhibitory activity or pharmaceutically acceptable salt thereof, and medical use thereof” (priority 2016, dated 2021):

Tests used:
[1] = test system: H1975 cells; assay: Cell viability by MTS analysis in H1975 cells resistant to Gefitinib; format: cell-based; conditions: H1975, cultured for 3 days
Protocol: To confirm the cell viability according to the concentration of the compound synthesized in H1975 cells (ATCC) resistant to Gefitinib, MTS [3-(4,5-dimethylthiazol-2-yl)-5-[…]carboxymethoxyphenyl)-2-(4-sulfophenyl)-2H-terazolium, inner salt] analysis was performed. When the cells were cultured so as to occupy 80% of the bottom of the culture dish, the cells were detached and diluted with RPMI 1640 medium to a concentration of 1.5×10^3 cells/well. Each 100 μL of the suspension was added to each well of a 96-well plate and cultured for 14 hours.

[2] = Log P; format: physicochemical; conditions: text: measured values of Log P
Protocol: All experimental data were analyzed using Prism software (version 5.0, Graphpad Software, San Diego, Calif.). In addition, tPSA (Topological Polar Surface Area) calculated using Cherndraw software and the measured values of Log P are shown in Tables 1 and 2 below.

[3] = test system: H1975; assay: Cell proliferation / survival inhibition by MTS analysis (H1975); format: cell-based; conditions: for Inhibition rate at 10 μM (%) / Inhibition rate at 30 μM (%): test system not given
Protocol: Sk-Br3 (Korean cell line bank), a breast cancer cell, and H1975 cell (ATCC), a nonsmall cell lung cancer, were cultured in RPMI 1640 containing 25 mM HEPES (4-(2-hydroxyethyl)-1-piperazineethanesulfonic acid) and RPMI 1640 containing L-glutamine (containing streptomycin ([…]), penicillin (100 units/mL) and 10% fetal bovine serum (FBS)).
Next, non-metastatic lung cancer cells were treated with Compound 17 and the cell proliferation rate or cell survival rate was measured by MTS [3-(4,5-dimethylthiazol-2-yl)-5-(3-carboxymethoxyphenyl)-1-2H-tetrazolium, inner salt] analysis.
Cells were dispensed in 96-well plates at 3000 cell/well (Sk-Br3) and 2000 cell/well (H1975), and 100 μL of the medium was added per well and then was incubated overnight.
Cell proliferation was evaluated using the Promega Cell Titer 96 Aqueous One Solution cell proliferation assay.
After compound and cell culture, 20 μL of assay substrate solution was added to each well and incubated at 37° C. for an additional 1 hour.
Cell proliferation was confirmed by measuring the absorbance at 490 nm using a microplate reader (Tecan Infinite F200 Proplate reader).

[4] = test system: HSP90 client protein (Her2, EGFR, Met, c-Raf, Akt), HSP70; assay: Analysis of protein expression (western blot) in H1975 cells, Compound 21f; format: cell-based
Protocol: Compound 21f having good efficacy was selected and HSP90 client protein proliferation effect in the same cell line was confirmed, in which the HSP90 client proteins were Her2 (human EGFR-related 2), EGFR (epidermal growth factor receptor), Met and c-Raf were used.
H1975 cells resistant to Gefitinib were cultured in a medium supplemented with 10% fetal bovine serum (FBS) for 24 hours, and the cells were detached, harvested and diluted with a RPMI 1640 medium so as to be 5×10^5 cells/well. Each 5 mL of the suspension was added to […] culture dish and cultured for 24 hours. Then, the medium was changed to the culture solution treated with each compound of concentration (21f 0, 0.05, 0.1, 0.5 or 1 μM, GA: 1 μM), and cultured for 24 hours. After culture, the cells were harvested and centrifuged at 1300 rpm for 5 minutes at 4° C., and the supernatant was removed. The pellet was washed with phosphate buffered saline, centrifuged once again under the same conditions, and the supernatant was removed. Lysis buffer was added to the remaining pellet and lysed by vortexing at 5 minute intervals for 30 minutes. The supernatant was separated by centrifugation at 16000 rcf for 4 minutes at 4° C., and proteins were quantified using BCA ([…]) kit. SDS-PAGE (sodium dodecylsulfate-polyacrylamide gel electrophoresis) was performed using 10, 12% running gel and 4% stacking gel (10 mA per gel). The separated proteins were transferred to an immunoblot PVDF, membrane (polyvinylidene fluoride membrane) at 100 V for 75 minutes. The membranes were blocked with 5% skim milk solution for 2 hours and then added a primary antibody diluted in the ratio of 1:750-1,000 in 0.1% tween-20 solution and reacted at 4° C. for 12 hours. After washing three times with TBS-T (Tris-buffered saline and Tween 20 containing Tween 20) and detected with an image analyzer using ECL (enhanced chemiluminescence) solution.

[5] = test system: H1975 cells; assay: H1975 colony formation inhibitory effect (clonogenic assay); format: cell-based; conditions: at 0.05 µM), 3 weeks, FIG. 3
Protocol: H1975 cells were treated with Compound 17 at a concentration of 0.05 or 0.5 μM for 3 weeks and then clogenic assay was performed.
First, RPMI1640 medium (10% FBS, 0.48% agar) was added to a 6-well plate and hardened, and then, 10000 cells (H1975) were dispensed in a medium containing RPMI1640 medium (10% FBS, 0.33% agar) and solidified. After solidification, the cells were treated with compound at a concentration of 0.05 or 0.5 […] for 24 hours, followed by culturing for 3 weeks, and then colony formation was confirmed using a crystal violet staining solution.

[6] = test system: HSP90 client protein of EGFR, Her2, Met, Akt, c-Raf, Cpk4; assay: Protein expression analysis (western blot) after Compound 17 treatment; format: cell-based; conditions: 0.05, 0.1, 0.5 or 1 μM, 24 hours, FIG. 4
Protocol: Next, the cells were dispensed into 100 mm culture dishes (1×10^6/dish) and adhered to the bottom surface overnight. Compound 17 at a concentration of 0.05, 0.1, 0.5 or 1 μM was added to the cells, followed by further culture for 24 hours.
In addition, cells were treated with DMSO (1%) or geladinamycin (1 μM) as a control and cultured for 24 hours.
The cultured cells were harvested and lysed in ice-cold lysis buffer (23 mM Tris-HCl pH 7.6, 130 mM NaCl, 1% NP40, […], 0.1% SDS (sodium dodecylsulfate)), and 30 μg of the lysate was separated by SDS-PAGE (SDS-polyacrylamide gel electrophoresis) and transferred to a PVDF membrane (Bio-Rad).
Membranes were blocked with TBST (Tween 20 containing iris-Buffered Saline) containing 5% skim milk and incubated with the respective primary antibodies [EGFR (Epidermal growth factor receptor), Her2 (human epidermal growth factor receptor type 2), Met, N-cadherin, E-cadherin, α-tubulin, acetyl-α-tubulin, protein kinase B (Akt), c-Raf, Cdk4 (Cyclin-dependent kinase 4), HSP90, HSP70, PARP (Poly […] Polymerase), caspase 3, cleaved caspase 3, truncated caspase 8, B-cell lymphoma 2 (Bcl-2). Bax or β-Actin, purchased from Cell Signaling Technology (USA)].
After binding to a secondary antibody conjugated with horseradish peroxidase, the protein was visualized by ECL (electrochemiluminescence, GE healthcare, USA).

Compound: COc1ccc(CN(C)C(=O)c2cc(Cl)c(O)cc2O)cc1 [Compound 14c, 5-chloro-2,4-dihydroxy-n-(4-methoxybenzyl)-n-methylbenzamide]
- EC50 [1]: 16.7 µM

Compound: CC(=O)N1CCN(C(=O)c2cc(Cl)c(O)cc2O)CC1 [Compound 11f, 1-(4-(5-chloro-2,4-dihydroxybenzol)piperazin-1-yl)ethanone]
- LogP [2]: 0.25
- Inhibition rate at 10 μM (%) [3]: 0%
- Inhibition rate at 30 μM (%) [3]: 10.5%

Compound: 5-chloro-2,4-dihydroxy-n-methyl-n-(3-methylbenzyl)benzamide [Compound 14i]
- EC50 [1]: 47.5 µM

Compound: CCCNC(=O)c1ccc(CN(C)C(=O)c2cc(Cl)c(O)cc2O)cc1 [Compound 21c, 5-chloro-2,4-dihydroxy-n-methyl-n-(4-(propylcarbamoyl)benzyl)benzamide]
- EC50 [1]: 20.8 µM

Compound: 5-chloro-2,4-dihydroxy-n-methyl-n-(2-methylbenzyl)benzamide [Compound 16a]
- EC50 [1]: 49.3 µM

Compound: COc1cc(CN(C)C(=O)c2cc(Cl)c(O)cc2O)c(Cl)c(OC)c1OC [Compound 14g, 5-chloro-n-(2-chloro-3,4,5-trimethoxybenzyl)-2,4-dihydroxy-n-methylbenzamide]
- EC50 [1]: 33.8 µM

Compound: CCCNC(=O)c1ccc(CN(C)C(=O)c2cc(C(C)C)c(O)cc2O)cc1 [Compound 21f, 2,4-dihydroxy-5-isopropyl-n-methyl-n-(4-(propylcarbamoyl)benzyl) benzamide]
- proliferation (expression) of the HSP90 client protein ([4]; 0, 0.05, 0.1, 0.5 or 1 μM, 24 hours, FIG. 5): inhibited in a concentration-dependent manner
- concentration at which Akt expression was significantly decreased ([4]; H1975, 24 hours): 0.5 µM
- concentration at which EGFR expression was significantly decreased ([4]; H1975, 24 hours): 0.1 µM
- concentration at which Her2 expression was significantly decreased ([4]; H1975, 24 hours): 0.5 µM
- concentration at which Met expression was significantly decreased ([4]; H1975, 24 hours): 0.5 µM
- concentration at which expression of HSP70 was increased ([4]; H1975, 24 hours): 0.5 µM

Compound: O=C(c1cc(Cl)c(O)cc1O)N1CCCCC1 [Compound 11b]
- LogP [2]: 1.69
- Inhibition rate at 10 μM (%) [3]: 7.6%
- Inhibition rate at 30 μM (%) [3]: 26.3%

Compound: Cc1ccc(CN(C)C(=O)c2cc(Cl)c(O)cc2O)cc1 [Compound 16b, 5-chloro-2,4-dihydroxy-n-methyl-n-(4-methylbenzyl)benzamide]
- EC50 [1]: 34.3 µM

Compound: CC(C)c1cc(C(=O)N2CCN(C)CC2c2ccccc2)c(O)cc1O (centres unmarked) [Compound 17, (2,4-dihydroxy-5-isopropylphenyl)(4-methyl-2-phenylpiperazin-1-yl)methanone]
- colony formation of H1975 [5]: inhibited the colony formation
- HSP protein inhibition / degradation of HSP90 client protein [6]: inhibited HSP protein in concentration-dependent manner
- proliferation rate of the cells ([3]; 0-70 μM, 1, 2 and 3 days, FIG. 2A): inhibited in a concentration-dependent manner

Compound: CCNC(=O)c1ccc(CN(C)C(=O)c2cc(Cl)c(O)cc2O)cc1 [Compound 21b, 5-chloro-n-(4-(ethylcarbamoyl)benzyl)-2,4-dihydroxy-n-methylbenzamide]
- EC50 [1]: 21.7 µM

Compound: COc1ccc(CN(C)C(=O)c2cc(Cl)c(O)cc2O)cc1OC [Compound 14d, 5-chloro-n-(3,4-dimethoxybenzyl)-2,4-dihydroxy-n-methylbenzamide]
- EC50 [1]: 33.4 µM
